Results taken from PubChem BioAssay (NCI).
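48-hour exposure; five concentrations; linearly interpolated endpoints. GI50 is the concentration that inhibits growth by half. TGI: concentration producing complete growth inhibition.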

What was measured:
Test in all cases: NCI anticancer screen, dose series, 48 h
KM12 colon = system: KM12 colon
OVCAR-8 ovarian = system: OVCAR-8 ovarian
CAKI-1 renal = system: CAKI-1 renal
DU-145 prostate = system: DU-145 prostate

Molecule `Cc1nc2ccc(Br)cc2c(=O)n1-c1nnc(C(C)(C)C)s1` has a TGI (KM12 colon) of over 10 µM, a TGI (OVCAR-8 ovarian) of over 10 µM and a TGI (CAKI-1 renal) of over 10 µM. The TGI (DU-145 prostate) was over 10 µM.
`CC(=O)C(C(c1ccccc1)N1CCOCC1)N1CCOCC1` (stereo not drawn) was tested, and the TGI (KM12 colon) was over 100 µM, the TGI (OVCAR-8 ovarian) was over 100 µM and the TGI (CAKI-1 renal) was over 100 µM. The TGI (DU-145 prostate) was over 100 µM.
`COc1cc2c(cc1O)c(O)cc1c3cc(OC)c(OC)cc3c[n+](C)c21` gave a TGI (KM12 colon) of over 100 µM, a TGI (OVCAR-8 ovarian) of over 79 µM and a TGI (CAKI-1 renal) of over 100 µM. The TGI (DU-145 prostate) was over 43.7 µM.
In the case of `COC(=O)C1=C(OC(=O)/C(=C/c2ccccc2)c2ccc(Cl)cc2Cl)C(C(=O)OC)[C@@]2(O)[C@@H](C(=O)OC)[C@H](C)C[C@@H]1[C@@H]2C(=O)OC` (stereo partly drawn), the TGI (KM12 colon) is reported as over 100 µM, the TGI (OVCAR-8 ovarian) is reported as over 100 µM and the TGI (CAKI-1 renal) is reported as over 100 µM. For the same molecule, the TGI (DU-145 prostate) was over 100 µM.
`O=C(CSc1nnc(-c2ccccn2)s1)N/N=C/c1ccccc1` was tested, and the TGI (KM12 colon) was over 100 µM, the TGI (OVCAR-8 ovarian) was over 100 µM and the TGI (CAKI-1 renal) was over 100 µM. For the same molecule, the TGI (DU-145 prostate) was over 100 µM.
Work on `Nc1ccccc1CCN1CCN(CCCc2ccccc2)CC1` yielded a TGI (KM12 colon) of over 100 µM, a TGI (OVCAR-8 ovarian) of over 100 µM and a TGI (CAKI-1 renal) of over 100 µM. The TGI (DU-145 prostate) was over 100 µM.
With `CCOC(=O)c1sc(=S)n(-c2ccc(Cl)cc2)c1-n1cc(-c2ccccc2)c(C#N)c1N` the TGI (KM12 colon) was over 100 µM, the TGI (OVCAR-8 ovarian) was 27.1 µM and the TGI (CAKI-1 renal) was over 100 µM. For the same molecule, the TGI (DU-145 prostate) was 21.2 µM.
With `Clc1ccc(CCN(CCc2ccc(Cl)c(Cl)c2)CCN2CCCC2)cc1Cl` the TGI (KM12 colon) was 3.04 µM, the TGI (OVCAR-8 ovarian) was 3.06 µM and the TGI (CAKI-1 renal) was 3.02 µM. It also gave a TGI (DU-145 prostate) of 4.3 µM.
`COc1ccc(/C=C2\N=C(N3CCCCC3)NC2=O)cc1` was tested, and the TGI (KM12 colon) was over 100 µM, the TGI (OVCAR-8 ovarian) was over 100 µM and the TGI (CAKI-1 renal) was over 100 µM. It also gave a TGI (DU-145 prostate) of over 100 µM.
With `O=C(/C=C/c1ccc(O)c(O)c1)OCC(OC(=O)/C=C/c1ccc(O)c(O)c1)C(=O)O` (stereo not drawn) the TGI (KM12 colon) was over 100 µM, the TGI (OVCAR-8 ovarian) was over 100 µM and the TGI (CAKI-1 renal) was over 100 µM. It also gave a TGI (DU-145 prostate) of over 100 µM.
Molecule `Cc1ccc(C(=O)O)c(/C=C2\Cc3ccc(C)cc3C2=O)c1` has a TGI (KM12 colon) of over 100 µM, a TGI (OVCAR-8 ovarian) of over 100 µM and a TGI (CAKI-1 renal) of over 100 µM. For the same molecule, the TGI (DU-145 prostate) was over 100 µM.
`CCCC(C)c1ccc(OCCCCCCN2CCNCC2)cc1` (stereo not drawn) was tested, and the GI50 (KM12 colon) was 1.87 µM, the TGI (KM12 colon) was 3.85 µM and the GI50 (CAKI-1 renal) was 1.99 µM. For the same molecule, the TGI (CAKI-1 renal) was 4.45 µM, the GI50 (DU-145 prostate) was 2.25 µM and the TGI (DU-145 prostate) was 5.43 µM.
`CS(=O)(=O)Nc1ccc2ccccc2c1-c1c(NS(C)(=O)=O)ccc2ccccc12` showed a TGI (KM12 colon) of over 25 µM, a TGI (OVCAR-8 ovarian) of over 25 µM and a TGI (CAKI-1 renal) of over 25 µM. The TGI (DU-145 prostate) was over 25 µM.
Work on `COc1ccc(-c2c(C(C)=O)c(-c3ccccc3)n(C3OC(CO)C(O)C(O)C3O)c(=S)c2C#N)cc1` (stereo not drawn) yielded a TGI (KM12 colon) of over 100 µM, a TGI (OVCAR-8 ovarian) of over 100 µM and a TGI (CAKI-1 renal) of over 100 µM. It also gave a TGI (DU-145 prostate) of over 100 µM.
`CC(=O)SCCC(NC(=S)Nc1ccccc1)P(=O)(Oc1ccccc1)Oc1ccccc1` (stereo not drawn) showed a TGI (KM12 colon) of over 100 µM, a TGI (OVCAR-8 ovarian) of over 100 µM and a TGI (CAKI-1 renal) of over 100 µM. It also gave a TGI (DU-145 prostate) of over 100 µM.
`O=C(NN1C(=O)C(Cl)C1c1ccc(Cl)cc1)c1c(Cl)c(Cl)c(Cl)c(Cl)c1-c1nc2ccccc2[nH]1` (stereo not drawn) showed a TGI (KM12 colon) of over 100 µM, a TGI (OVCAR-8 ovarian) of 43.7 µM and a TGI (CAKI-1 renal) of 23.2 µM. The TGI (DU-145 prostate) was 42.6 µM.
Molecule `O=C(O)CO[C@@]12C#C/C=C\C#C[C@@H]3N(C(=O)Oc4ccccc4)c4ccccc4[C@]14O[C@@]34CCC2` has a TGI (KM12 colon) of 60.3 µM, a TGI (OVCAR-8 ovarian) of over 100 µM and a TGI (CAKI-1 renal) of over 100 µM. For the same molecule, the TGI (DU-145 prostate) was over 100 µM.
`C#CCn1c(=O)c(I)cn(/C(=C/C(=O)OCC)C(=O)OCC)c1=O` gave a TGI (KM12 colon) of 34.8 µM, a TGI (OVCAR-8 ovarian) of 19.1 µM and a TGI (CAKI-1 renal) of 3.38 µM. For the same molecule, the TGI (DU-145 prostate) was 23.9 µM.
In the case of `C=CC[C@]1(/C=N/O)CN(S(=O)(=O)CC[Si](C)(C)C)C[C@H]2CC=CC[C@H]21`, the TGI (KM12 colon) is reported as 51.5 µM, the TGI (OVCAR-8 ovarian) is reported as 67.3 µM and the TGI (CAKI-1 renal) is reported as 42.8 µM. It also gave a TGI (DU-145 prostate) of 46.9 µM.
`C=C(CCOC)CCC1CCCCC(CN(C)C)C1=O` (stereo not drawn) gave a TGI (KM12 colon) of over 100 µM, a TGI (OVCAR-8 ovarian) of over 100 µM and a TGI (CAKI-1 renal) of over 100 µM. For the same molecule, the TGI (DU-145 prostate) was over 100 µM.
In the case of `N#CSCC(Cl)=CCl` (mixture of isomers), the TGI (KM12 colon) is reported as over 100 µM, the TGI (OVCAR-8 ovarian) is reported as over 100 µM and the TGI (DU-145 prostate) is reported as over 100 µM.
Molecule `S=C(N/N=C/c1ccccn1)N1CCCCC1` has a TGI (KM12 colon) of over 100 µM, a TGI (OVCAR-8 ovarian) of over 65.6 µM and a TGI (CAKI-1 renal) of over 100 µM. For the same molecule, the TGI (DU-145 prostate) was over 100 µM.
In the case of `N#Cc1ccc(-c2nc3c(N)ncnc3o2)cc1`, the TGI (KM12 colon) is reported as over 100 µM, the TGI (OVCAR-8 ovarian) is reported as over 100 µM and the TGI (CAKI-1 renal) is reported as over 100 µM. For the same molecule, the TGI (DU-145 prostate) was over 100 µM.
Work on `CCCCCCNCCc1cnc[nH]1` yielded a TGI (KM12 colon) of over 100 µM, a TGI (OVCAR-8 ovarian) of over 100 µM and a TGI (CAKI-1 renal) of over 100 µM. The TGI (DU-145 prostate) was over 100 µM.
In the case of `COC1(OC)N=C(N)C2(C#N)C(c3ccccc3)NC3=C(CCC3)C12C#N` (stereo not drawn), the TGI (KM12 colon) is reported as over 100 µM, the TGI (OVCAR-8 ovarian) is reported as over 100 µM and the TGI (CAKI-1 renal) is reported as over 100 µM. The TGI (DU-145 prostate) was over 100 µM.
For `NC(=Nc1ccccc1Cl)c1ccccc1N`, the TGI (KM12 colon) was over 100 µM, the TGI (OVCAR-8 ovarian) was over 100 µM and the TGI (CAKI-1 renal) was over 100 µM. For the same molecule, the TGI (DU-145 prostate) was over 100 µM.
For `COc1ccc(CC2COc3cc(OC)cc(OC)c3C2=O)cc1` (stereo not drawn), the TGI (KM12 colon) was over 100 µM, the TGI (OVCAR-8 ovarian) was 83.3 µM and the TGI (CAKI-1 renal) was 57.1 µM. For the same molecule, the TGI (DU-145 prostate) was 77.2 µM.
`CCOC(=O)/C=C(\C(=O)OCC)n1cc(C)c(=O)n(Cc2cn(CCCCOC(C)=O)nn2)c1=O` gave a TGI (KM12 colon) of 33.3 µM, a TGI (OVCAR-8 ovarian) of 21.2 µM and a TGI (CAKI-1 renal) of 10.4 µM. For the same molecule, the TGI (DU-145 prostate) was 37.2 µM.
Work on `CC(=O)OCC1OC(N2C(C)=C(C(C)=O)C(c3ccc(Cl)cc3)C(C#N)=C2S)C(OC(C)=O)C(OC(C)=O)C1OC(C)=O` (stereo not drawn) yielded a TGI (KM12 colon) of over 100 µM, a TGI (OVCAR-8 ovarian) of over 100 µM and a TGI (CAKI-1 renal) of over 100 µM. It also gave a TGI (DU-145 prostate) of over 100 µM.
`CC1C2CC(C(S(=O)(=O)O)C2=O)C1(C)C` (stereo not drawn) gave a TGI (KM12 colon) of over 100 µM, a TGI (OVCAR-8 ovarian) of over 100 µM and a TGI (DU-145 prostate) of over 100 µM.
With `COc1ccc2c(c1)/C(=C\c1c(Cl)[nH]c3cc(C)c(OC)cc13)C(=O)N2` the TGI (KM12 colon) was 5.06 µM, the TGI (OVCAR-8 ovarian) was 8.22 µM and the TGI (CAKI-1 renal) was 20.4 µM. For the same molecule, the TGI (DU-145 prostate) was 5.98 µM.
Molecule `COC(=O)C1Cc2cc3c(cc2C1=O)CCC3` (stereo not drawn) has a TGI (KM12 colon) of over 100 µM, a TGI (OVCAR-8 ovarian) of over 100 µM and a TGI (CAKI-1 renal) of over 100 µM. It also gave a TGI (DU-145 prostate) of over 100 µM.
In the case of `CC1(C)[C@@H]2CC[C@]1(C)[C@H](OC(=O)CSC#N)C2`, the TGI (KM12 colon) is reported as over 100 µM, the TGI (OVCAR-8 ovarian) is reported as over 100 µM and the TGI (CAKI-1 renal) is reported as over 100 µM. For the same molecule, the TGI (DU-145 prostate) was over 100 µM.
`O=C1NC(=S)N/C1=C\c1cccs1` gave a TGI (KM12 colon) of over 100 µM, a TGI (OVCAR-8 ovarian) of over 100 µM and a TGI (CAKI-1 renal) of over 100 µM. It also gave a TGI (DU-145 prostate) of over 100 µM.
In the case of `Nn1c(C23CC4CC(CC(C4)C2)C3)n[nH]c1=S`, the TGI (KM12 colon) is reported as over 100 µM, the TGI (CAKI-1 renal) is reported as over 100 µM and the TGI (DU-145 prostate) is reported as over 100 µM.
`OC(CNc1ccccn1)c1ccccc1` (stereo not drawn) was tested, and the TGI (KM12 colon) was over 100 µM, the TGI (OVCAR-8 ovarian) was over 100 µM and the TGI (CAKI-1 renal) was over 100 µM. The TGI (DU-145 prostate) was over 100 µM.
